In patent US20080070868A1, “Novel Thiazole Inhibitors of Fructose 1,6-bisphosphatase” (Metabasis Therapeutics, Inc., priority 2004, published 2008):
pIC50: −log10 of the molar value.

molecular target: T1, human liver FBPase (Homo sapiens, UniProt P09467); test: Inhibition of human liver FBPase; format: biochemical; conditions: N-acetyl-1.1 relative to 1.1
T1 construct: made in house; host or cells: E. coli BL21
T1 sequence (P09467 2-338 limits assumed): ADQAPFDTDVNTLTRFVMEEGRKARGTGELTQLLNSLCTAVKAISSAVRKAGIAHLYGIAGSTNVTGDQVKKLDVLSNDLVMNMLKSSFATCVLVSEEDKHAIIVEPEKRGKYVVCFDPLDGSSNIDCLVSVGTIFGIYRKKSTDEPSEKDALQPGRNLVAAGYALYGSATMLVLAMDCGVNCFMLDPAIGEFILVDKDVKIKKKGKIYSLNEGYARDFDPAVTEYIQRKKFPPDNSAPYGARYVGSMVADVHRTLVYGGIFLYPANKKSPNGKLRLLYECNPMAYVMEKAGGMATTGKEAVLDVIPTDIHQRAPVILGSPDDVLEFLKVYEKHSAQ
Experimental: E. coli strain BL21 transformed with a human liver FBPase-encoding plasmid was obtained from Dr. M. R. El-Maghrabi at the State University of New York at Stony Brook. […] Enzymatic activity was measured spectrophotometrically in reactions that coupled the formation of product (fructose 6-phosphate) to the reduction of dimethylthiazoldiphenyltetrazolium bromide (MTT) via NADP^+ and phenazine methosulfate (PMS), using phosphoglucose isomerase and glucose 6-phosphate dehydrogenase as the coupling enzymes. Reaction mixtures (200 μl) were made up in 96-well microtitre plates, and consisted of 50 mM Tris-HCl, pH 7.4, 100 mM KCl, 5 mM EGTA, 2 mM MgCl2, 0.2 mM NADP, 1 mg/ml BSA, 1 mM MTT, 0.6 mM PMS, 1 unit/ml phosphoglucose isomerase, 2 units/ml glucose 6-phosphate dehydrogenase, and 0.150 mM substrate (fructose 1,6-bisphosphate). Inhibitor concentrations were varied from 0.01 μM to 10 μM. Reactions were started by the addition of 0.002 units of pure hlFBPase, and were monitored for 7 min. at 590 nm in a Molecular Devices Plate Reader (37° C.).

For CC(=O)Nc1nc(-c2ccc(P(=O)(O)O)o2)c(C(=O)C(C)(C)C)s1 [N-acetyl-1.1, reference compound], the “rightward shift in potency in the FBPase assay on N-acetylation” value was 74.5 fold.

same assay, conditions: purified recombinant human liver FBPase, 0.150 mM fructose 1,6-bisphosphate, 37° C.; read-out: IC50 (hlFBPase)

In order of rising pIC50:
1. CC(=O)Nc1nc(-c2ccc(P(=O)(O)O)o2)c(C(=O)C(C)(C)C)s1 [N-acetyl-1.1, reference compound]  5.64
2. Nc1ncnc2c1ncn2[C@@H]1O[C@H](COP(=O)(O)O)[C@@H](O)[C@H]1O [AMP, reference compound]  6.00
3. Nc1nc(-c2ccc(P(=O)(O)O)o2)c(C(=O)c2cccc(C(F)(F)F)c2)s1 [Compound 1.26, [5-(2-amino-5-(3-trifluoromethylbenzoyl)thiazol-4-yl)-furan-2-yl]phosphonic acid]  6.92
4. COc1ccccc1C(=O)c1sc(N)nc1-c1ccc(P(=O)(O)O)o1 [Compound 1.14, [5-(2-amino-5-(2-methoxybenzoyl)thiazol-4-yl)furan-2-yl]-phosphonic acid]  6.93
5. Nc1nc(-c2ccc(P(=O)(O)O)o2)c(C(=O)c2ccccc2C(F)(F)F)s1 [Compound 1.27, [5-(2-amino-5-(2-trifluoromethylbenzoyl)thiazol-4-yl)-furan-2-yl]phosphonic acid]  6.95
6. CN(C)c1ccc(C(=O)c2sc(N)nc2-c2ccc(P(=O)(O)O)o2)cc1 [Compound 1.32, [5-(2-amino-5-(4-(N,N-dimethylamino)benzoyl)thiazol-4-yl)-furan-2-yl]phosphonic acid]  6.98
7. Nc1nc(-c2ccc(P(=O)(O)O)o2)c(C(=O)c2ccc(C(F)(F)F)cc2)s1 [Compound 1.24, [5-(2-amino-5-(4-trifluoromethylbenzoyl)thiazol-4-yl)-furan-2-yl]phosphonic acid]  7.00
8. Nc1nc(-c2ccc(P(=O)(O)O)o2)c(C(=O)c2ccc(N3CCOCC3)c(Cl)c2)s1 [Compound 1.25, [5-(2-amino-5-(3-chloro-4-(1-morpholinyl)benzoyl)-thiazol-4-yl)furan-2-yl]phosphonic acid]  7.02
9. COc1ccc(C(=O)c2sc(N)nc2-c2ccc(P(=O)(O)O)o2)cc1OC [Compound 1.17, [5-(2-amino-5-(3,4-dimethoxybenzoyl)thiazol-4-yl)furan-2-yl]-phosphonic acid]  7.03
10. COc1cccc(C(=O)c2sc(N)nc2-c2ccc(P(=O)(O)O)o2)c1 [Compound 1.18, [5-(2-amino-5-(3-methoxybenzoyl)thiazol-4-yl)furan-2-yl]-phosphonic acid]  7.07
11. Nc1nc(-c2ccc(P(=O)(O)O)o2)c(C(=O)c2ccc(Cl)cc2)s1 [Compound 1.9, [5-(2-amino-5-(4-chlorobenzoyl)thiazol-4-yl)furan-2-yl]-phosphonic acid]  7.07
12. Nc1nc(-c2ccc(P(=O)(O)O)o2)c(C(=O)c2cccc(Cl)c2)s1 [Compound 1.12, [5-(2-amino-5-(3-chlorobenzoyl)thiazol-4-yl)furan-2-yl]-phosphonic acid]  7.14
13. Nc1nc(-c2ccc(P(=O)(O)O)o2)c(C(=O)c2ccc(N3CCCCC3)cc2)s1 [Compound 1.31, [5-(2-amino-5-(4-piperidinylbenzoyl)thiazol-4-yl)furan-2-yl]-phosphonic acid]  7.14
14. COc1ccc(C(=O)c2sc(N)nc2-c2ccc(P(=O)(O)O)o2)cc1 [Compound 1.16, [5-(2-amino-5-(4-methoxybenzoyl)thiazol-4-yl)furan-2-yl]-phosphonic acid]  7.21
15. Nc1nc(-c2ccc(P(=O)(O)O)o2)c(C(=O)c2ccc3ccccc3c2)s1 [Compound 1.29, [5-(2-amino-5-(2-naphthylcarbonyl)thiazol-4-yl)furan-2-yl]-phosphonic acid]  7.22
16. Nc1nc(-c2ccc(P(=O)(O)O)o2)c(C(=O)c2ccc(-c3ccccc3)cc2)s1 [Compound 1.28, [5-(2-amino-5-(4-phenylbenzoyl)thiazol-4-yl)furan-2-yl]-phosphonic acid]  7.24
17. Nc1nc(-c2ccc(P(=O)(O)O)o2)c(C(=O)c2ccc(N3CCCC3)c(Cl)c2)s1 [Compound 1.21, [5-(2-amino-5-(3-chloro-4-(1-pyrrolidinyl)benzoyl)-thiazol-4-yl)furan-2-yl]-phosphonic acid]  7.27
18. Nc1nc(-c2ccc(P(=O)(O)O)o2)c(C(=O)c2ccc3c(c2)OCO3)s1 [Compound 1.19, [5-(2-amino-5-(3,4-methylenedioxybenzoyl)thiazol-4-yl)-furan-2-yl]phosphonic acid]  7.28
19. Cc1ccccc1C(=O)c1sc(N)nc1-c1ccc(P(=O)(O)O)o1 [Compound 1.13, [5-(2-amino-5-(2-methylbenzoyl)thiazol-4-yl)furan-2-yl]-phosphonic acid]  7.32
20. Cc1ccc(C(=O)c2sc(N)nc2-c2ccc(P(=O)(O)O)o2)cc1 [Compound 1.10, [5-(2-amino-5-(4-methylbenzoyl)thiazol-4-yl)furan-2-yl]-phosphonic acid]  7.32
21. Nc1nc(-c2ccc(P(=O)(O)O)o2)c(C(=O)c2cccs2)s1 [Compound 1.7, [5-(2-amino-5-(2-thienylcarbonyl)thiazol-4-yl)furan-2-yl]-phosphonic acid]  7.39
22. Nc1nc(-c2ccc(P(=O)(O)O)o2)c(C(=O)C2CCCCC2)s1 [Compound 1.6, [5-(2-amino-5-cyclohexylcarbonyl-thiazol-4-yl)furan-2-yl]-phosphonic acid]  7.40
23. Nc1nc(-c2ccc(P(=O)(O)O)o2)c(C(=O)c2cccc(F)c2)s1 [Compound 1.8, [5-(2-amino-5-(3-fluorobenzoyl)thiazol-4-yl)furan-2-yl]-phosphonic acid]  7.43
24. Cc1cccc(C(=O)c2sc(N)nc2-c2ccc(P(=O)(O)O)o2)c1 [Compound 1.11, [5-(2-amino-5-(3-methylbenzoyl)thiazol-4-yl)furan-2-yl]-phosphonic acid]  7.44
25. Nc1nc(-c2ccc(P(=O)(O)O)o2)c(C(=O)c2ccc(F)cc2)s1 [Compound 1.22, [5-(2-amino-5-(4-fluorobenzoyl)thiazol-4-yl)furan-2-yl]-phosphonic acid]  7.48
26. Nc1nc(-c2ccc(P(=O)(O)O)o2)c(C(=O)C2CCC2)s1 [Compound 1.34, [5-(2-amino-5-cyclobutylcarbonylthiazol-4-yl)furan-2-yl]-phosphonic acid]  7.80
27. Nc1nc(-c2ccc(P(=O)(O)O)o2)c(C(=O)C2CCCC2)s1 [Compound 1.30, [5-(2-amino-5-cyclopentylcarbonylthiazol-4-yl)furan-2-yl]-phosphonic acid]  7.85
28. CCC(C)C(=O)c1sc(N)nc1-c1ccc(P(=O)(O)O)o1 (centres unmarked) [Compound 1.33, [5-(2-amino-5-(2-methylbutyryl)thiazol-4-yl)furan-2-yl]-phosphonic acid]  7.96
29. CCC(CC)C(=O)c1sc(N)nc1-c1ccc(P(=O)(O)O)o1 [Compound 1.23, [5-(2-amino-5-(2-ethylbutyryl)thiazol-4-yl)furan-2-yl]-phosphonic acid]  8.05

molecular target: T2, human NAT1 (Homo sapiens, UniProt P18440); test: N-acetylation by recombinant human NAT1; format: in vitro ADME; conditions: compound 100 μM, 37° C., 120 min, N-acyl product by HPLC
T2 construct: purchased BD Gentest (Bedford, Mass.); host or cells: insect cells
T2 sequence (P18440 1-290): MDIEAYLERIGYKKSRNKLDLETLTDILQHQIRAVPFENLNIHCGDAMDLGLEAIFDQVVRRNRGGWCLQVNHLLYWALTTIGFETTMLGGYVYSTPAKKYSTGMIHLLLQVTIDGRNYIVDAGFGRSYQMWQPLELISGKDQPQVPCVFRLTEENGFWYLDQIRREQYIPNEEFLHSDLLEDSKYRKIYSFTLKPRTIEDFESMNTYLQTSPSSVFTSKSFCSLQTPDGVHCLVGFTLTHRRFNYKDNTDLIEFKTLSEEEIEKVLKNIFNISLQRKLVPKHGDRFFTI
Experimental: Insect cell-expressed human NAT1 and NAT2 and control insect cytosol were obtained from BD Gentest (Bedford, Mass.). Compounds (100 μM) were incubated in 0.25 mL of NAT reaction cocktail consisting of 25 mM potassium phosphate pH 7.4 (at 25° C.), 1 mM EDTA, 1 mM DTT, 0.5 mM acetyl CoA, 5 mM acetyl-DL-carnitine, 20 u/mL acetyltransferase and either NAT1, NAT2 or control insect cytosol (0.1 mg/mL). Reactions were performed in an Eppendorf Thermomixer (37° C., 120 min.). At 0 and 120 min., 100 μl of each reaction was removed and added to a clean 1.7 mL tube containing 150 μl of 100% methanol. The tubes were vortexed and centrifuged at 14,000 rpm for 10 min. in an Eppendorf microcentrifuge (room temperature, 5 min., 14,000 rpm). The supernatants were analyzed by HPLC (Agilent 1100 series) using a Phenosphere C18 column (5 micron, 150×4.6 mm). The column was equilibrated with 20 mM potassium phosphate pH 4.5 or pH 6.2 (at 25° C.) and eluted with a linear gradient to 80% acetonitrile. The percent conversion of the compounds was calculated from the following equation: area of N-acyl product divided by (area of compound+area of N-acyl product), multiplied by 100.

In order of falling “% Conversion NAT1” value:
1. Nc1nc(-c2ccc(P(=O)(O)O)o2)c(CC2CCCC2)s1 [Compound 3.2, reference compound]  22.3%
2. CCC(C)Cc1sc(N)nc1-c1ccc(P(=O)(O)O)o1 (centres unmarked) [Compound 3.5, reference compound]  14.2%
3. CC(C)c1sc(N)nc1-c1ccc(P(=O)(O)O)o1 [Compound 3.4, reference compound]  14.0%
4. CCC(C)(C)Cc1sc(N)nc1-c1ccc(P(=O)(O)O)o1 [Compound 3.3, reference compound]  4.6%

tested on: Sprague-Dawley rats; test: Glucose lowering following oral administration to the fasted, normal rat; format: in vivo; conditions: maximum lowering relative to saline controls, 10 mg/kg oral, 18-h fasted rats
Experimental: Compounds were administered by oral gavage to 18-h fasted, Sprague-Dawley rats (250-300 g, n=3/4/group) at a dose of 10 mg/kg. Phosphonic acids (active moieties) were prepared in deionized water, and the solution adjusted to neutrality with sodium hydroxide. Prodrugs were dissolved in polyethylene glycol (mw 400). Blood samples were taken via tail vein nick immediately prior to dosing and at 1 h intervals thereafter. Blood glucose was analyzed by means of a HemoCue glucose analyzer (HemoCue Inc., Mission Viejo, Calif.). The table below indicates the maximum % glucose lowering achieved relative to control animals dosed with saline.

Work on Cc1ccccc1C(=O)c1sc(N)nc1-c1ccc(P(=O)(N[C@@H](C)C(=O)OC(C)C)N[C@@H](C)C(=O)OC(C)C)o1 [Compound 2.22, 2-amino-5-(2-methylbenzoyl)-4-{[5-(N,N′-((S)-1-isopropyl-oxycarbonyl)ethyl)-phosphonamido]furan-2-yl}thiazole] yielded an inhibition in vivo at 10 mg/kg of 9%.
